Measurements as given in US11622991B2, “Protocol for treatment of lupus nephritis” (Aurinia Pharmaceuticals Inc., priority 2017, dated 2023).

Tested on: lupus nephritis
Experiment: Pharmacodynamic dosing (eGFR-based dose reduction): CR/PR in patients with and without dose reduction
Type: in vivo, human
Experimental: To determine the efficacy of the pharmacodynamic protocol wherein dosage is reduced or stopped according to the presence or absence of indicators of the decrease in eGFR experienced as a side effect, these three groups of patients were assessed after 24 weeks and 48 weeks of treatment with respect to whether treatment was altered according to the invention protocol.
In this study, CR was defined as a composite of UPCR ≤0.5 mg/mg; eGFR >60 mL/min/1.73 m^2 or within 20% of baseline, steroids at ≤10 mg/day and no administration of rescue medication. PR is defined as UPCR reduction of 50% from baseline and no use of rescue medication.

[1] = 24 weeks, High Dose (39.5 mg BID)
[2] = 24 weeks, Low Dose (23.7 mg BID)
[3] = 48 weeks, High Dose (39.5 mg BID)
[4] = 48 weeks, Low Dose (23.7 mg BID)
[5] = patients with dose reductions (pharmacodynamically dosed), High Dose (39.5 mg BID)
[6] = patients with dose reductions (pharmacodynamically dosed), Low Dose (23.7 mg BID)
[7] = patients with no dose reductions, High Dose (39.5 mg BID)
[8] = patients with no dose reductions, Low Dose (23.7 mg BID)

C=C/C=C/C[C@@H](C)[C@@H](O)[C@H]1C(=O)N[C@@H](CC)C(=O)N(C)CC(=O)N(C)[C@@H](CC(C)C)C(=O)N[C@@H](C(C)C)C(=O)N(C)[C@@H](CC(C)C)C(=O)N[C@@H](C)C(=O)N[C@H](C)C(=O)N(C)[C@@H](CC(C)C)C(=O)N(C)[C@@H](CC(C)C)C(=O)N(C)[C@@H](C(C)C)C(=O)N1C [voclosporin]
Patients with Dose Reduction [1]: 47 (53.4) n(%)
Patients with no Dose Reduction [1]: 41 (46.6) n(%)
Patients with Dose Reduction [2]: 39 (43.8) n(%)
Patients with no Dose Reduction [2]: 50 (56.2) n(%)
Patients with Dose Reduction [3]: 53 (60.2) n(%)
Patients with no Dose Reduction [3]: 35 (39.8) n(%)
Patients with Dose Reduction [4]: 46 (51.7) n(%)
Patients with no Dose Reduction [4]: 43 (48.3) n(%)
Patients with CR at 24 weeks [5]: 13 (27.7) n(%)
Patients with CR at 48 weeks [5]: 24 (45.3) n(%)
Patients with PR at 24 weeks [5]: 34 (72.3) n(%)
Patients with PR at 48 weeks [5]: 41 (77.4) n(%)
Patients with CR at 24 weeks [6]: 14 (35.9) n(%)
Patients with CR at 48 weeks [6]: 24 (52.2) n(%)
Patients with PR at 24 weeks [6]: 28 (71.8) n(%)
Patients with PR at 48 weeks [6]: 35 (76.1) n(%)
Patients with CR at 24 weeks [7]: 11 (26.8) n(%)
Patients with CR at 48 weeks [7]: 11 (31.4) n(%)
Patients with PR at 24 weeks [7]: 24 (58.5) n(%)
Patients with PR at 48 weeks [7]: 22 (62.9) n(%)
Patients with CR at 24 weeks [8]: 15 (30.0) n(%)
Patients with CR at 48 weeks [8]: 20 (46.5) n(%)
Patients with PR at 24 weeks [8]: 34 (68.0) n(%)
Patients with PR at 48 weeks [8]: 26 (60.5) n(%)
